Experimental findings from patent US20090197906A1, “REVERSION OF MALIGNANT PHENOTYPE WITH 9-HYDROXY ELLIPTICINE DERIVATIVES” (priority 2006, published 2009) are described below.

Like-named read-outs stand apart in the source and are kept apart here.

Data set [1] relates to B16BL6 melanoma cell line. Description: MTT cell viability, combination with retinoids. The format is cell-based. As to the method:
The ex vivo cell viability inhibition by BA016DD537 in the presence of the retinoids 13CRA and ATRA was tested against B16BL6 melanoma cell line using the 3-(4,5 dimethylthiazol-2-yl)-2,5-diphenyl-2H-tetrazolium bromide (MTT) calorimetric assay.
(§1) About 1000 cells were seeded in a 96-well culture plate 24 hours before adding increasing concentrations of BA016DD537, from 1 pM to 100 pM, in the absence or in the presence of 10 nM of retinoids. The plate was incubated at 37° C. for 3 days. 10 μl MTT stock solution (5 mg/ml in phosphate buffer saline) was added to 90 μl of complete medium in each well, the incubation was continued for 3 h at 37° C. 100 μl of lysis buffer (20% sodium dodecyl sulfate, 10 mM HCl, 1×PBS) was added to each well, and the plate was incubated overnight. The absorbance was determined using an Integrated EIA Management System (Labsystem) at a wavelength of 570 nm.

Data set [2] has as its system NCI-H446. Briefly: SRB (sulforhodamine B) cell proliferation assay. The format is cell-based, human. The following applies: NCI-H446, viability 72 h, mean +/− SEM. As to the method:
(§2) Growth studies were performed using the Sulforhodamine B (SRB) calorimetric assay (Sigma).
(§3) SRB assay is used for cell density determination based on the measurement of cellular protein content. This method has been optimized for toxicity screening of compounds in adherent cells in a 96-well format (Skehan et al., Proc. Amer. Assoc. Cancer Res. 1989, 30:2436).
(§4) About 50 000 NCI-H510, NCI-H446 or NCI-H187 cells were seeded in a 96-well culture plate while adding increasing concentrations of BA016FZ539.
(§5) After an incubation period, cell monolayers are fixed with 10% (wt/vol) trichloroacetic acid and stained for 30 min, after which the excess dye is removed by washing repeatedly with 1% (vol/vol) acetic acid. The protein-bound dye is dissolved in 10 mM Tris base solution for optic density determination (OD) at 510 nm using a microplate reader.
(§6) The proliferation rates were calculated from the OD readings using the untreated cells as 100%.

Data set [3] relates to NCI-H510. Description: SRB (sulforhodamine B) cell proliferation assay. In kind it is cell-based, human. The conditions noted are these: NCI-H510, viability 72 h, mean +/− SEM. As to the method:
as §2, §3, §4, §5, §6

In data set [4] the test system is NCI-H187. Briefly: SRB (sulforhodamine B) cell proliferation assay. The format is cell-based, human. The conditions noted are these: NCI-H187, viability 72 h, mean +/− SEM. As to the method: as §2, §3, §4, §5, §6
In data set [5] the test system is NCI-H446. Briefly: MTT cell proliferation assay. The format is cell-based, human. The conditions noted are these: NCI-H446, viability 72 h, mean +/− SEM. As to the method: (§7) Growth studies were performed using the [3-(4,5 dimethylthiazol-2-yl)-2,5-diphenyl-2H-tetrazolium bromide] (Sigma) calorimetric assay.
as §1, with “1500 to 5000 cells, according to the cell line,” for “1000 cells”, “BA016DD537” for “BA016DD537, from 1 pM to 100 pM, in the absence”, “BA016FZ539.” for “in the presence of 10 nM of retinoids.”, “(10%” for “(20%”, “1% HCl 1N; pH 4.7)” for “10 mM HCl, 1×PBS)”, “nm. The proliferation rates were calculated from the OD readings using the untreated cells as 100%.” for “nm.”
(§8) The SRB protein stain assay was compared with the tetrazolium (MTT) colorimetric assay for in vitro chemosensitivity testing of various human small cell lung cancer cell lines.
In general terms: Formazan colour is commonly taken as a measure of viable cells.

Data set [6] deals with NCI-H510. Briefly: MTT cell proliferation assay. The conditions noted are these: NCI-H510, viability 72 h. In kind it is cell-based, human. As to the method:
as §7
as §1, with “1500 to 5000 cells, according to the cell line,” for “1000 cells”, “BA016DD537” for “BA016DD537, from 1 pM to 100 pM, in the absence”, “BA016FZ539.” for “in the presence of 10 nM of retinoids.”, “(10%” for “(20%”, “1% HCl 1N; pH 4.7)” for “10 mM HCl, 1×PBS)”, “nm. The proliferation rates were calculated from the OD readings using the untreated cells as 100%.” for “nm.”
as §8

Data set [7] concerns NCI-H187. Briefly: MTT cell proliferation assay. In kind it is cell-based, human. The following applies: NCI-H187, viability 72 h. As to the method:
as §7
as §1, with “1500 to 5000 cells, according to the cell line,” for “1000 cells”, “BA016DD537” for “BA016DD537, from 1 pM to 100 pM, in the absence”, “BA016FZ539.” for “in the presence of 10 nM of retinoids.”, “(10%” for “(20%”, “1% HCl 1N; pH 4.7)” for “10 mM HCl, 1×PBS)”, “nm. The proliferation rates were calculated from the OD readings using the untreated cells as 100%.” for “nm.”
as §8

Another data set deals with C9. Briefly: MTT cell proliferation assay. The format is cell-based, human. The conditions noted are these: C9, 3 days; read-out: Cytotoxic effect (MTT) IC50. As to the method: as §7
as §1, with “1500 to 5000 cells, according to the cell line,” for “1000 cells”, “BA016DD537” for “BA016DD537, from 1 pM to 100 pM, in the absence”, “BA016FZ539.” for “in the presence of 10 nM of retinoids.”, “(10%” for “(20%”, “1% HCl 1N; pH 4.7)” for “10 mM HCl, 1×PBS)”, “nm. The proliferation rates were calculated from the OD readings using the untreated cells as 100%.” for “nm.”

Another data set has as its system 1205 Lu. Briefly: MTT cell proliferation assay. The format is cell-based, human. The conditions noted are these: 3 days, read-out: Cytotoxic effect (MTT) IC50. As to the method: as §7
as §1, with “1500 to 5000 cells, according to the cell line,” for “1000 cells”, “BA016DD537” for “BA016DD537, from 1 pM to 100 pM, in the absence”, “BA016FZ539.” for “in the presence of 10 nM of retinoids.”, “(10%” for “(20%”, “1% HCl 1N; pH 4.7)” for “10 mM HCl, 1×PBS)”, “nm. The proliferation rates were calculated from the OD readings using the untreated cells as 100%.” for “nm.”

Another data set has as its system PANC-1. Description: MTT cell proliferation assay. In kind it is cell-based, human. As for the experimental part:
as §7
as §1, with “1500 to 5000 cells, according to the cell line,” for “1000 cells”, “BA016DD537” for “BA016DD537, from 1 pM to 100 pM, in the absence”, “BA016FZ539.” for “in the presence of 10 nM of retinoids.”, “(10%” for “(20%”, “1% HCl 1N; pH 4.7)” for “10 mM HCl, 1×PBS)”, “nm. The proliferation rates were calculated from the OD readings using the untreated cells as 100%.” for “nm.”

The subject of a further data set is A375. Briefly: MTT cell proliferation assay. The following applies: A375, 3 days; read-out: Cytotoxic effect (MTT) IC50. In kind it is cell-based, human. As to the method:
as §7
as §1, with “1500 to 5000 cells, according to the cell line,” for “1000 cells”, “BA016DD537” for “BA016DD537, from 1 pM to 100 pM, in the absence”, “BA016FZ539.” for “in the presence of 10 nM of retinoids.”, “(10%” for “(20%”, “1% HCl 1N; pH 4.7)” for “10 mM HCl, 1×PBS)”, “nm. The proliferation rates were calculated from the OD readings using the untreated cells as 100%.” for “nm.”

For the next data set, the system named is Mia Paca-2. Description: MTT cell proliferation assay. The format is cell-based, human. As to the method: as §7
as §1, with “1500 to 5000 cells, according to the cell line,” for “1000 cells”, “BA016DD537” for “BA016DD537, from 1 pM to 100 pM, in the absence”, “BA016FZ539.” for “in the presence of 10 nM of retinoids.”, “(10%” for “(20%”, “1% HCl 1N; pH 4.7)” for “10 mM HCl, 1×PBS)”, “nm. The proliferation rates were calculated from the OD readings using the untreated cells as 100%.” for “nm.”

Another data set relates to SKMEL28. Description: MTT cell proliferation assay. The format is cell-based, human. The following applies: SKMEL28, 3 days; read-out: Cytotoxic effect (MTT) IC50. As for the experimental part:
as §7
as §1, with “1500 to 5000 cells, according to the cell line,” for “1000 cells”, “BA016DD537” for “BA016DD537, from 1 pM to 100 pM, in the absence”, “BA016FZ539.” for “in the presence of 10 nM of retinoids.”, “(10%” for “(20%”, “1% HCl 1N; pH 4.7)” for “10 mM HCl, 1×PBS)”, “nm. The proliferation rates were calculated from the OD readings using the untreated cells as 100%.” for “nm.”

Another data set has as its system HT144. Description: MTT cell proliferation assay. The conditions noted are these: HT144, 3 days; read-out: Cytotoxic effect (MTT) IC50. In kind it is cell-based, human. As for the experimental part:
as §7
as §1, with “1500 to 5000 cells, according to the cell line,” for “1000 cells”, “BA016DD537” for “BA016DD537, from 1 pM to 100 pM, in the absence”, “BA016FZ539.” for “in the presence of 10 nM of retinoids.”, “(10%” for “(20%”, “1% HCl 1N; pH 4.7)” for “10 mM HCl, 1×PBS)”, “nm. The proliferation rates were calculated from the OD readings using the untreated cells as 100%.” for “nm.”

In the next data set the test system is 451 Lu. Briefly: MTT cell proliferation assay. The format is cell-based, human. The following applies: 3 days, read-out: Cytotoxic effect (MTT) IC50. As for the experimental part:
as §7
as §1, with “1500 to 5000 cells, according to the cell line,” for “1000 cells”, “BA016DD537” for “BA016DD537, from 1 pM to 100 pM, in the absence”, “BA016FZ539.” for “in the presence of 10 nM of retinoids.”, “(10%” for “(20%”, “1% HCl 1N; pH 4.7)” for “10 mM HCl, 1×PBS)”, “nm. The proliferation rates were calculated from the OD readings using the untreated cells as 100%.” for “nm.”

`Cc1c2cc[n+](CCN3CCCCC3)cc2c(C)c2c1[nH]c1ccc(O)cc12.[Cl-]` [BA016DD537, 2-(β-piperidinoethyl)-9-hydroxyellipticinium chloride]: in data set [1] (100 nM alone vs 1 pM in the presence of ATRA 10 nM), the “decrease of dose when used in combination with retinoids for the same results” value is 100 000 fold. The “tumoral cell viability inhibition (MTT)” value in data set [1] (lower doses in the presence of 10 nM retinoids (13CRA, ATRA)) is listed as “increased tumoral cell viability inhibition”.

In the case of `CS(=O)(=O)[O-].Cc1c2cc[n+](CCN3CCCCC3)cc2c(C)c2c1[nH]c1ccc(O)cc12` [BA016FZ539, 2-(betapiperidino-2-ethyl)-9-hydroxyellipticinium methanesulfonate], the IC50 with NCI-H446 [2] is 22.4 µM; in the data set with NCI-H510 [3], 5.8 µM; with NCI-H187 [4] it was 16.9 µM; with NCI-H446 [5], 9.8 µM; in the data set with NCI-H510 [6] it was 14.8 µM; with NCI-H187 [7] it was 7.9 µM. Also, the IC50 turned out to be 2.1 µM with C9; 1.6 µM with 1205 Lu; 22 µM in the data set with PANC-1 (PANC-1, 3 days, read-out: Cytotoxic effect (MTT) IC50); 22 µM in the data set on PANC-1 (PANC-1, viability 72 h (Example 9), read-out: IC50 (μM) MTT); 2.9 µM with A375; 7.58 µM in the data set on Mia Paca-2 (MIA PaCA-2, viability 72 h, mean +/− SEM (Example 9), read-out: IC50 (μM) MTT). The IC50 amounted to 7.6 µM in the data set with Mia Paca-2 (Mia Paca-2, 3 days, read-out: Cytotoxic effect (MTT) IC50); 10.7 µM in the data set with SKMEL28; 9 µM in the data set on HT144; 4.2 µM in the data set on 451 Lu.

One may read the IC50 as the concentration needed to halve the response being measured.
